Experimental data taken from patent publication US8551937B2, “Peptide having an extending action for half-life of object peptide in plasma” (priority 2008, dated 2013).
Where a SMILES comes first, the peptide text is derived from it. Bridges are numbered along the chain shown (N, C = ends).

Assays:
[1] = CNP immunoreactivity concentration in plasma after administration to rats (competitive RIA), pharmacokinetic parameters (Example 2); assay type: in vivo, rat; settings: rat, plasma, 0.1 mg/kg, male rats, N = 3, mean ± SD; for half-life: read-out: T½; for C0: extrapolated value
Protocol: Pharmacokinetic parameters were calculated from the resulting changes in immunoreactivity concentrations in plasma. At that time, WinNonlin Professional Ver. 4.0.1 (manufactured by Pharsight Corporation, U.S.A.) was used as the analytical software. Method for the calculation of each parameter is mentioned as follows.
Concentration at time 0 (C0; extrapolated value, ng/mL), area under the curve for concentration in plasma vs. time (AUC; ng.min/mL) and quenching half-life (T½; minute(s)) were calculated as follows. C0 was calculated as a value at time by means of extrapolation from the changes in immunoreactivity concentration in plasma at each blood collection period. AUC was calculated by a trapezoidal method using the immunoreactivity concentrations in plasma at all measuring points (t) and an extrapolated value until the infinitive time was determined. T½ was calculated by means of a least-squares method from the inclination of a straight line connecting several points in a disappearing phase of the immunoreactivity concentration in plasma. In the case of a subcutaneous administration, C0 was not determined but the maximum concentration in plasma (Cmax; ng/mL) and the time reaching the maximum concentration in plasma (Tmax; min) were determined.
Changes in CNP immunoreactivity concentration in plasma of native CNP-22 and chimeric peptide (chimeric CNP) where a half-life-extension peptide was added to CNP were investigated.
The experiment was conducted in the same manner as in Example 1 that rats where polyethylene tube was previously inserted into thigh artery were used under an anesthetizing condition with Nembutal and male SD strain rats of 7 weeks age (purchased from Nippon Charles River) were used where one group comprised 3 rats. […] At that time, a rabbit polyclonal antibody (#2) recognizing a ring part of native CNP-22 was used as an antibody and ^125I-[Tyr^0] CNP was used as a labeling compound. Pharmacokinetic analysis was carried out by the same method as in Example 1.

[2] = molecular target: T1, neutral endopeptidase (NEP) (Homo sapiens, UniProt P08473); assay: Resistance to peptidase: stability to hNEP (HPLC residual rate); assay type: in vitro ADME; settings: human, isolated enzyme neprilysin, pH 6.5
T1 construct: purchased R&D Systems, Inc., U.S.A
Protocol: The experiment was conducted in N=2 for each sample. Native CNP-22, chimeric CNP (A, B) (structure mentioned already; final concentration: 0.5 μg/mL) and 100 μL of reaction solution (medium: 20 mM MES, pH 6.5) of human type recombinant neutral endopeptidase (hNEP, manufactured by R&D Systems, Inc., U.S.A.) were prepared. […] Distilled water (100 μL) was added to the sample after boiling followed by well mixing and 50 μL thereof was analyzed in a water-acetonitrile system using a high-performance liquid chromatography system LC-10A (manufactured by Shimadzu). The analytical data were analyzed by a Chromato-Pack (CRA-10A, manufactured by Shimadzu) and area of the peak zone of unchanged substance was calculated. The area of average zone of unchanged substance when made to react at 37° C. was divided by the area of average zone of the boiled sample to calculate the residual rate of the unchanged substance after 1 hour.

NEP = molecular target: T2, NEP (Rattus norvegicus, UniProt P07861); assay: NEP resistance in vivo: influence of NEP inhibitor on pharmacokinetic parameters after intravenous administration; settings: rat, in vivo
T2 construct: male SD strain rats of 7 weeks age (Nippon Charles River; body weight: ca. 250 g) were used; from tissue; host or cells: whole animal: male SD rats (Nippon Charles River), in vivo
T2 sequence (P07861 1-750): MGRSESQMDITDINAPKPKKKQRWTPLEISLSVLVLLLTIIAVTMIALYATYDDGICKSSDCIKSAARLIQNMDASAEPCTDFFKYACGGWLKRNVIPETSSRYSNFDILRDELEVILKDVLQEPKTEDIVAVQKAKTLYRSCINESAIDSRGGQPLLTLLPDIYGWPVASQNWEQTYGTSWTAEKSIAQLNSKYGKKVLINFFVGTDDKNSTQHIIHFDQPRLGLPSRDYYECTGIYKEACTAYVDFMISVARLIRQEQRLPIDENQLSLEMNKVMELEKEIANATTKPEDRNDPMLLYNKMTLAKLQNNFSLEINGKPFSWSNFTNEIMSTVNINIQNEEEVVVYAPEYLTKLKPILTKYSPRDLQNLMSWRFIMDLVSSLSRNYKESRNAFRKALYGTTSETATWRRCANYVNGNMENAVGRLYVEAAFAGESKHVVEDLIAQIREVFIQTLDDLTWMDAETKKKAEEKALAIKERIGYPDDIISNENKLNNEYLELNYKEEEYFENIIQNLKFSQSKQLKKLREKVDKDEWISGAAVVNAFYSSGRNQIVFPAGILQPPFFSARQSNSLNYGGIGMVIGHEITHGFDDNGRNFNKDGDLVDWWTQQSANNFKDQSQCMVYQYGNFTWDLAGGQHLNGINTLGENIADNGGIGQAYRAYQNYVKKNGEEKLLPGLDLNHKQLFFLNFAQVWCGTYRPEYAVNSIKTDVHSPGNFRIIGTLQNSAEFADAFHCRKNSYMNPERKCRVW
Protocol: Further, NEP resistance in vivo of the native CNP-22 and chimeric CNP (B) was evaluated using the effect by the joint use with an NEP inhibitor affecting on changes in CNP immunoreactivity concentration in plasma after the intravenous administration as an index. This test was also carried out using rats into which a polyethylene tube (PE-50, manufactured by Clay […].) was inserted into thigh artery for collection of blood and rats into which a polyethylene tube (PE-10, manufactured by Clay […].) was inserted into thigh vein for administration of an NEP inhibitor under an anesthetizing condition using Nembutal. As a test system, male SD strain rats of 7 weeks age (Nippon Charles River; body weight: ca. 250 g) were used for the experiment where one group comprised 3 rats. […] Time for the administration was from 10 minutes before the administration of the native CNP-22 or the chimeric CNP (B) to completion of blood collection which was 60 minutes after the administration. The native CNP-22 and the chimeric CNP (B) each was administered into the tail vein in a dose of 20 μg/kg and the blood before starting the administration of NEP inhibitor (-10 minutes), before the administration of CNP (0 minute) and until after 60 minutes from the administration was collected by a thigh artery cannula. After a stabilizer and an anticoagulant were added to the collected blood, it was centrifuged to give plasma and the immunoreactivity concentration in the plasma was measured by the above-mentioned competitive RIA. The pharmacokinetic analysis was carried out by the same method as in Example 1.

in vivo = settings: male, SD, rat, iv, 20 nmol/kg

T1 sequence (P08473 whole entry): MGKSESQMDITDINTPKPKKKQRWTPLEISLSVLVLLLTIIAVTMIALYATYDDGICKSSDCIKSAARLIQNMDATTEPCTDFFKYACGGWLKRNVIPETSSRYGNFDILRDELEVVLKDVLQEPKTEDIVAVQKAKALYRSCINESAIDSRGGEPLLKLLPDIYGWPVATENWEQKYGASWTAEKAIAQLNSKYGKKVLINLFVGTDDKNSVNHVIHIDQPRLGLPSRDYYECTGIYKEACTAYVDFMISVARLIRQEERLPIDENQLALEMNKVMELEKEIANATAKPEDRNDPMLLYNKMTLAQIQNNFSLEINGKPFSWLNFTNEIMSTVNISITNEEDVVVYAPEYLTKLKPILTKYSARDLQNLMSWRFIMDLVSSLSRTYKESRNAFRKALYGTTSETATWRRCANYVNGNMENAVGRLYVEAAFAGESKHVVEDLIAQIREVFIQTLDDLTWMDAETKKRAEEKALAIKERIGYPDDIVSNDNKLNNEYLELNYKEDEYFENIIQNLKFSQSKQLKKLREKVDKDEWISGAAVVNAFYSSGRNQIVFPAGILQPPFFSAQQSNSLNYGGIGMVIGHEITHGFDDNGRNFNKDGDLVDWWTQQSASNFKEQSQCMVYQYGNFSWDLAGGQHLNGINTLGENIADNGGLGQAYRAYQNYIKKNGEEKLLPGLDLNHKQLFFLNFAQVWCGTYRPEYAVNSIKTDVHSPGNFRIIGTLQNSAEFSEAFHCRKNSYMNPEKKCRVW

Structure (SMILES)	AUC(0-inf) ([1]; sc, subcutaneous)	Cmax ([1]; sc, subcutaneous)	Tmax ([1]; sc, subcutaneous)	half-life ([1]; sc, subcutaneous)	AUC(0-inf) ([1]; intravenous)	C0 ([1]; intravenous)	half-life ([1]; intravenous)	remaining at 1 h, 0.5 μg/mL [2]	AUC0→∞ (NEP; male, SD, iv, 0.02 mg/kg)	C0 (NEP; male, SD, iv, 0.02 mg/kg)	T½ (NEP; male, SD, iv, 0.02 mg/kg)	AUC(0-inf) (NEP; male, SD, iv, 0.02 mg/kg, AUC0→∞)	C0 (NEP; male, SD, iv, 0.02 mg/kg, C0)	half-life (NEP; male, SD, iv, 0.02 mg/kg, T½)	decomposition by NEP in the body of the rat (NEP)	half-life (in vivo)
CC[C@H](C)[C@@H]1NC(=O)[C@H](CCCNC(=N)N)NC(=O)[C@H](CC(=O)O)NC(=O)[C@H](CC(C)C)NC(=O)[C@H](CCCCN)NC(=O)[C@H](CC(C)C)NC(=O)CNC(=O)[C@H](Cc2ccccc2)NC(=O)[C@@H](NC(=O)[C@@H](NC(=O)[C@H](CCC(N)=O)NC(=O)[C@H](CCC(N)=O)NC(=O)[C@H](CCCNC(=N)N)NC(=O)[C@H](CCCCN)NC(=O)[C@H](CCC(=O)O)NC(=O)[C@H](CO)NC(=O)[C@H](CCCCN)NC(=O)[C@H](CCCCN)NC(=O)[C@@H]2CCCN2C(=O)[C@@H]2CCCN2C(=O)[C@H](C)NC(=O)[C@H](CCCCN)NC(=O)[C@H](CC(C)C)NC(=O)[C@H](CCC(N)=O)NC(=O)[C@@H]2CCCN2C(=O)[C@@H](N)CCCNC(=N)N)C(C)C)CSSC[C@@H](C(=O)O)NC(=O)CNC(=O)[C@H](CC(C)C)NC(=O)CNC(=O)[C@H](CO)NC(=O)[C@H](CCSC)NC(=O)[C@H](CO)NC(=O)CNC1=O [Chimeric CNP (A)] (H-RPQLKAPPKKSEKRQQVCFGLKLDRIGSMSGLGC-OH; disulfide 18-34; N-terminus and C-terminus assumed)	24.9 ng·h/mL	27.9 ± 2.7 ng/mL	13.3 min	20.7 ± 7.5 min	107 ng·h/mL	1030 ± 358 ng/mL	21.7 ± 6.1 min	84.3%	–	–	–	–	–	–	–	–
CC[C@H](C)[C@@H]1NC(=O)[C@H](CCCNC(=N)N)NC(=O)[C@H](CC(=O)O)NC(=O)[C@H](CC(C)C)NC(=O)[C@H](CCCCN)NC(=O)[C@H](CC(C)C)NC(=O)CNC(=O)[C@H](Cc2ccccc2)NC(=O)[C@@H](N)CSSC[C@@H](C(=O)N[C@H](C(=O)N[C@@H](CCC(N)=O)C(=O)N[C@@H](CCC(N)=O)C(=O)N[C@@H](CCCNC(=N)N)C(=O)N[C@@H](CCCCN)C(=O)N[C@@H](CCC(=O)O)C(=O)N[C@@H](CO)C(=O)N[C@@H](CCCCN)C(=O)N[C@@H](CCCCN)C(=O)N2CCC[C@H]2C(=O)N2CCC[C@H]2C(=O)N[C@@H](C)C(=O)N[C@@H](CCCCN)C(=O)N[C@@H](CC(C)C)C(=O)N[C@@H](CCC(N)=O)C(=O)N2CCC[C@H]2C(=O)N[C@@H](CCCNC(=N)N)C(=O)O)C(C)C)NC(=O)CNC(=O)[C@H](CC(C)C)NC(=O)CNC(=O)[C@H](CO)NC(=O)[C@H](CCSC)NC(=O)[C@H](CO)NC(=O)CNC1=O [Chimeric CNP (B)] (H-CFGLKLDRIGSMSGLGCVQQRKESKKPPAKLQPR-OH; disulfide 1-17; N-terminus and C-terminus assumed)	28.1 ng·h/mL	32.8 ± 7.9 ng/mL	10 min	24 ± 9.7 min	153 ng·h/mL	1470 ± 749 ng/mL	36.2 ± 2.3 min	83.8%	1342 ± 168 ng·min/mL	203 ± 71 ng/mL	12.7 ± 1.2 min	24.5 ng·h/mL	253 ± 15 ng/mL	14.9 ± 3.1 min	hardly decomposed by NEP	–
CC[C@H](C)[C@@H]1NC(=O)[C@H](CCCNC(=N)N)NC(=O)[C@H](CC(=O)O)NC(=O)[C@H](CC(C)C)NC(=O)[C@H](CCCCN)NC(=O)[C@H](CC(C)C)NC(=O)CNC(=O)[C@H](Cc2ccccc2)NC(=O)[C@@H](NC(=O)CNC(=O)[C@H](CCCCN)NC(=O)[C@H](CO)NC(=O)[C@H](CC(C)C)NC(=O)CN)CSSC[C@@H](C(=O)N[C@H](C(=O)N[C@@H](CCC(N)=O)C(=O)N[C@@H](CCC(N)=O)C(=O)N[C@@H](CCCNC(=N)N)C(=O)N[C@@H](CCCCN)C(=O)N[C@@H](CC(=O)O)C(=O)N[C@@H](CO)C(=O)N[C@@H](CCCCN)C(=O)N[C@@H](CCCCN)C(=O)N2CCC[C@H]2C(=O)N2CCC[C@H]2C(=O)N[C@@H](C)C(=O)N[C@@H](CCCCN)C(=O)N[C@@H](CC(C)C)C(=O)N[C@@H](CCC(N)=O)C(=O)N2CCC[C@H]2C(=O)N[C@@H](CCCNC(=N)N)C(=O)O)C(C)C)NC(=O)CNC(=O)[C@H](CC(C)C)NC(=O)CNC(=O)[C@H](CO)NC(=O)[C@H](CCSC)NC(=O)[C@H](CO)NC(=O)CNC1=O [Chimeric CNP (J)] (H-GLSKGCFGLKLDRIGSMSGLGCVQQRKDSKKPPAKLQPR-OH; disulfide 6-22; N-terminus and C-terminus assumed)	–	–	–	–	–	–	–	–	–	–	–	–	–	–	–	31.2 min
CC[C@H](C)[C@@H]1NC(=O)[C@H](CCCNC(=N)N)NC(=O)[C@H](CC(=O)O)NC(=O)[C@H](CC(C)C)NC(=O)[C@H](CCCCN)NC(=O)[C@H](CC(C)C)NC(=O)CNC(=O)[C@H](Cc2ccccc2)NC(=O)[C@@H](N)CSSC[C@@H](C(=O)N[C@@H](C)C(=O)NCC(=O)N[C@@H](CO)C(=O)N[C@H](C(=O)N[C@@H](CC(=O)O)C(=O)N[C@@H](Cc2c[nH]cn2)C(=O)N[C@@H](CCCCN)C(=O)NCC(=O)N[C@@H](CCCCN)C(=O)N[C@@H](CCC(N)=O)C(=O)N[C@@H](CCCNC(=N)N)C(=O)N[C@@H](CCCCN)C(=O)N[C@H](C(=O)N[C@H](C(=O)N[C@@H](CC(=O)O)C(=O)N[C@@H](Cc2c[nH]cn2)C(=O)N2CCC[C@H]2C(=O)N[C@@H](CCCCN)C(=O)N[C@@H](CCCNC(=N)N)C(=O)O)C(C)C)C(C)C)C(C)C)NC(=O)CNC(=O)[C@H](CC(C)C)NC(=O)CNC(=O)[C@H](CO)NC(=O)[C@H](CCSC)NC(=O)[C@H](CO)NC(=O)CNC1=O [Chimeric CNP (K)] (H-CFGLKLDRIGSMSGLGCAGSVDHKGKQRKVVDHPKR-OH; disulfide 1-17; N-terminus and C-terminus assumed)	–	–	–	–	–	–	–	–	–	–	–	–	–	–	–	18 min
